CC[C@@]1(OC(=O)CCCBr)C(=O)OCc2c1cc1n(c2=O)Cc2c-1nc1ccccc1c2CO
melting point: 172 to 176 °C (dec.)

Source: patent US7517891B2, “Camptothecin derivatives and improved synthetic methods” (Glyconix Corporation, priority 2005, dated 2009)
